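Five concentrations, 48 hours, 96-well plates. TGI denotes the concentration required for complete inhibition of growth.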
Tests used:
Assay in all cases: NCI anticancer screen, dose series, 48 h
[1] = tested on: SNB-75 CNS
[2] = tested on: U251 CNS
[3] = tested on: SW-620 colon
[4] = tested on: MALME-3M melanoma
[5] = tested on: HOP-92 NSCLC
[6] = tested on: HL-60(TB) leukemia
[7] = tested on: RXF-631 renal
[8] = tested on: CCRF-CEM leukemia
[9] = tested on: SNB-78 CNS
[10] = tested on: CAKI-1 renal
[11] = tested on: ACHN renal
[12] = tested on: A549 NSCLC
[13] = tested on: UACC-62 melanoma
[14] = tested on: M14 melanoma
[15] = tested on: EKVX NSCLC
[16] = tested on: SF-539 CNS
[17] = tested on: SK-MEL-5 melanoma
[18] = tested on: OVCAR-5 ovarian
[19] = tested on: HOP-62 NSCLC
[20] = tested on: KM12 colon
[21] = tested on: SK-MEL-28 melanoma
[22] = tested on: KM20L2 colon
[23] = tested on: SK-OV-3 ovarian
[24] = tested on: M19-MEL melanoma
[25] = tested on: UO-31 renal
[26] = tested on: NCI-H226 lung
[27] = tested on: 786-0 renal
[28] = tested on: UACC-257 melanoma
[29] = tested on: OVCAR-8 ovarian
[30] = tested on: OVCAR-4 ovarian
[31] = tested on: DMS 114 small cell lung
[32] = tested on: LXFL 529 NSCLC
[33] = tested on: RPMI-8226 leukemia
[34] = tested on: HT29 colon
[35] = tested on: NCI-H460 lung
[36] = tested on: SF-268 CNS
[37] = tested on: A498 renal
[38] = tested on: NCI-H522 lung
[39] = tested on: NCI-H23 lung
[40] = tested on: TK-10 renal
[41] = tested on: XF 498 CNS
[42] = tested on: SK-MEL-2 melanoma
[43] = tested on: K-562 leukemia
[44] = tested on: IGROV1 ovarian
[45] = tested on: HCT-116 colon
[46] = tested on: RXF 393 renal
[47] = tested on: LOX IMVI melanoma
[48] = tested on: SF-295 CNS
[49] = tested on: COLO 205 colon
[50] = tested on: HCT-15 colon
[51] = tested on: OVCAR-3 ovarian
[52] = tested on: SN12C renal
[53] = tested on: MOLT-4 leukemia
[54] = tested on: DMS 273 small cell lung
[55] = tested on: HCC-2998 colon
[56] = tested on: SNB-19 CNS
[57] = tested on: HOP-18 NSCLC
[58] = tested on: DLD-1 colon

Cc1c(C(=O)CC(=O)C(=O)Nc2c(C(C)C)cccc2C(C)C)[n+](=O)c2ccccc2n1[O-]
TGI [1]: 31.4 µM
TGI [2]: 10.7 µM
TGI [3]: 13.2 µM
TGI [4]: 18.8 µM
TGI [5]: 35.1 µM
TGI [6]: 6.91 µM
TGI [7]: 14.4 µM
TGI [8]: 7.84 µM
TGI [9]: 41.3 µM
TGI [10]: 43 µM
TGI [11]: 15.3 µM
TGI [12]: 32.3 µM
TGI [13]: 22.3 µM
TGI [14]: 10.8 µM
TGI [15]: 29 µM
TGI [16]: 17.5 µM
TGI [17]: 24.4 µM
TGI [18]: 35.6 µM
TGI [19]: 59.3 µM
TGI [20]: 15.7 µM
TGI [21]: 48.3 µM
TGI [22]: 15.9 µM
TGI [23]: 40.1 µM
TGI [24]: 4.87 µM
TGI [25]: 31.4 µM
TGI [26]: 54.5 µM
TGI [27]: 22.7 µM
TGI [28]: 12.6 µM
TGI [29]: 7.38 µM
TGI [30]: 15.5 µM
TGI [31]: 6.41 µM
TGI [32]: 23.4 µM
TGI [33]: 15.4 µM
TGI [34]: 13.9 µM
TGI [35]: 7.02 µM
TGI [36]: 25.2 µM
TGI [37]: 49.6 µM
TGI [38]: 5.83 µM
TGI [39]: 34 µM
TGI [40]: 60.2 µM
TGI [41]: 15 µM
TGI [42]: 28.4 µM
TGI [43]: 31.1 µM
TGI [44]: 11.4 µM
TGI [45]: 9.1 µM
TGI [46]: 38.9 µM
TGI [47]: 12.9 µM
TGI [48]: 29.1 µM
TGI [49]: 15.2 µM
TGI [50]: 8.43 µM
TGI [51]: 5.29 µM
TGI [52]: 12.2 µM
TGI [53]: 8.2 µM
TGI [54]: 12.1 µM
TGI [55]: 16.6 µM
TGI [56]: 37.9 µM

CC1(C)CCC[C@@]2(C)C1C[C@H](O)[C@@]1(C)O[C@@](C)([C@H](O)CO)CCC21 (some centres undefined)
TGI [1]: 58.9 µM
TGI [2]: > 100 µM
TGI [3]: > 100 µM
TGI [4]: > 100 µM
TGI [5]: 70.7 µM
TGI [6]: 48.1 µM
TGI [7]: > 100 µM
TGI [57]: > 100 µM
TGI [8]: > 100 µM
TGI [9]: > 100 µM
TGI [10]: > 100 µM
TGI [11]: 74.9 µM
TGI [12]: > 100 µM
TGI [13]: 96.1 µM
TGI [14]: > 100 µM
TGI [15]: > 100 µM
TGI [16]: > 100 µM
TGI [17]: 44 µM
TGI [18]: > 100 µM
TGI [19]: > 100 µM
TGI [20]: > 100 µM
TGI [21]: > 100 µM
TGI [22]: > 100 µM
TGI [23]: 79.4 µM
TGI [24]: > 100 µM
TGI [25]: 85.3 µM
TGI [26]: > 100 µM
TGI [27]: > 100 µM
TGI [28]: > 100 µM
TGI [29]: > 100 µM
TGI [30]: > 100 µM
TGI [31]: 90.2 µM
TGI [32]: > 100 µM
TGI [33]: 45.2 µM
TGI [34]: 86 µM
TGI [35]: > 100 µM
TGI [36]: > 100 µM
TGI [37]: 77.1 µM
TGI [38]: 89.8 µM
TGI [39]: > 100 µM
TGI [40]: > 100 µM
TGI [41]: > 100 µM
TGI [42]: 60 µM
TGI [43]: > 100 µM
TGI [44]: 70.6 µM
TGI [45]: > 100 µM
TGI [48]: > 100 µM
TGI [49]: 56.5 µM
TGI [50]: > 100 µM
TGI [51]: > 100 µM
TGI [52]: > 100 µM
TGI [53]: 62 µM
TGI [54]: > 100 µM
TGI [55]: > 100 µM
TGI [56]: > 100 µM

CCCCSN1C(=O)c2ccccc2C1=S
TGI [1]: > 100 µM
TGI [2]: > 100 µM
TGI [3]: > 100 µM
TGI [4]: > 100 µM
TGI [5]: > 100 µM
TGI [6]: 51.2 µM
TGI [7]: > 100 µM
TGI [8]: 53 µM
TGI [9]: > 100 µM
TGI [10]: > 100 µM
TGI [11]: > 100 µM
TGI [12]: > 100 µM
TGI [13]: > 100 µM
TGI [14]: > 100 µM
TGI [15]: > 100 µM
TGI [16]: > 100 µM
TGI [17]: > 100 µM
TGI [18]: > 100 µM
TGI [19]: > 100 µM
TGI [20]: > 100 µM
TGI [21]: > 100 µM
TGI [23]: > 100 µM
TGI [24]: > 100 µM
TGI [25]: > 100 µM
TGI [27]: > 100 µM
TGI [28]: > 100 µM
TGI [29]: > 100 µM
TGI [30]: > 100 µM
TGI [31]: > 100 µM
TGI [33]: 49.4 µM
TGI [34]: > 100 µM
TGI [35]: > 100 µM
TGI [36]: > 100 µM
TGI [37]: > 100 µM
TGI [39]: > 100 µM
TGI [40]: > 100 µM
TGI [41]: > 100 µM
TGI [42]: > 100 µM
TGI [43]: 69.5 µM
TGI [44]: > 100 µM
TGI [58]: > 100 µM
TGI [45]: > 100 µM
TGI [46]: > 100 µM
TGI [47]: > 100 µM
TGI [48]: > 100 µM
TGI [49]: > 100 µM
TGI [50]: > 100 µM
TGI [51]: > 100 µM
TGI [52]: > 100 µM
TGI [53]: 50.3 µM
TGI [54]: > 100 µM
TGI [55]: > 100 µM
TGI [56]: > 100 µM
